The source of these data is BindingDB's records for doi:10.1021/jm00088a003 (Merck Research Laboratories, 1992).

Each structure is given as a SMILES string.

This experiment addresses T1, Dimer of Gag-Pol polyprotein [489-587] (Human immunodeficiency virus 1, UniProt P12497).
T1 construct: 489-587
Put plainly: Protease Inhibition Assay. Particulars: pH 5.5; 30 °C. The procedure:
Sensitivity of HIV-1 protease activity to protease inhibitors was determined by a peptide substrate cleavage assay. Protease products were analyzed on a reverse-phase high-pressure liquid chromatograph.
A word on the IC50: it is the concentration at which inhibition is half-maximal. Higher therefore signals a need for much substance. Turning to `CN(C)CCOc1ccc(C[C@H](C[C@H](O)[C@H](Cc2ccccc2)NC(=O)OC(C)(C)C)C(=O)N[C@H]2c3ccccc3C[C@H]2O)cc1` [tert-butyl N-[(2S,3S,5R)-5-({4-[2-(dimethylamino)ethoxy]phenyl}methyl)-3-hydroxy-5-{[(1S,2R)-2-hydroxy-2,3-dihydro-1H-inden-1-yl]carbamoyl}-1-phenylpentan-2-yl]carbamate], half-maximal inhibition (IC50) was put at 2.1 nM.

In turn, `CC(C)(C)OC(=O)N[C@@H](Cc1ccccc1)[C@@H](O)C[C@@H](Cc1ccc(OCCN2CCCC2)cc1)C(=O)N[C@H]1c2ccccc2C[C@H]1O` [tert-butyl N-[(2S,3S,5R)-3-hydroxy-5-{[(1S,2R)-2-hydroxy-2,3-dihydro-1H-inden-1-yl]carbamoyl}-1-phenyl-5-({4-[2-(pyrrolidin-1-yl)ethoxy]phenyl}methyl)pentan-2-yl]carbamate] returned an IC50 of 1.8 nM.

`CN1CCN(CCOc2ccc(C[C@H](C[C@H](O)[C@H](Cc3ccccc3)NC(=O)OC(C)(C)C)C(=O)N[C@H]3c4ccccc4C[C@H]3O)cc2)CC1` [tert-butyl N-[(2S,3S,5R)-3-hydroxy-5-{[(1S,2R)-2-hydroxy-2,3-dihydro-1H-inden-1-yl]carbamoyl}-5-({4-[2-(4-methylpiperazin-1-yl)ethoxy]phenyl}methyl)-1-phenylpentan-2-yl]carbamate] had an IC50 of 0.2 nM.

On to `CC(C)(C)OC(=O)N[C@@H](Cc1ccccc1)[C@@H](O)C[C@@H](Cc1ccc(OCCN2CCSCC2)cc1)C(=O)N[C@H]1c2ccccc2C[C@H]1O` [N-(2(R)-Hydroxy-1(S)-indanyl)-5(S)-[(tert-butyloxycarbonyl)amino]-4(S)-hydroxy-6-phenyl-2(R)-[[4-[2-(thiamorpholin-4-yl)ethoxy]phenyl]methyl]hexanamide], for which 0.47 nM corresponded to half-maximal inhibition (IC50).

As to `CC(C)(C)OC(=O)N[C@@H](Cc1ccc(OCCN2CCOCC2)cc1)[C@@H](O)C[C@@H](Cc1ccc(OCCN2CCOCC2)cc1)C(=O)N[C@H]1c2ccccc2C[C@H]1O` [tert-butyl N-[(2S,3S,5R)-3-hydroxy-5-{[(1S,2R)-2-hydroxy-2,3-dihydro-1H-inden-1-yl]carbamoyl}-1-{4-[2-(morpholin-4-yl)ethoxy]phenyl}-5-({4-[2-(morpholin-4-yl)ethoxy]phenyl}methyl)pentan-2-yl]carbamate], the IC50 worked out at 1.9 nM.

The molecule `CC(C)(C)OC(=O)N[C@@H](Cc1ccccc1)[C@@H](O)C[C@@H](Cc1ccc(OCC[N+]2(O)CCOCC2)cc1)C(=O)N[C@H]1c2ccccc2C[C@H]1O` [4-(2-{4-[(2R)-2-[(2S,3S)-3-{[(tert-butoxy)carbonyl]amino}-2-hydroxy-4-phenylbutyl]-2-{[(1S,2R)-2-hydroxy-2,3-dihydro-1H-inden-1-yl]carbamoyl}ethyl]phenoxy}ethyl)-4-hydroxymorpholin-4-ium] yielded an IC50 of 0.2 nM.

`CC(C)(C)OC(=O)N[C@@H](Cc1ccccc1)[C@@H](O)C[C@@H](Cc1ccc(OCCN2CC[S+]([O-])CC2)cc1)C(=O)N[C@H]1c2ccccc2C[C@H]1O` [tert-butyl N-[(2S,3S,5R)-3-hydroxy-5-{[(1S,2R)-2-hydroxy-2,3-dihydro-1H-inden-1-yl]carbamoyl}-5-({4-[2-(1-oxo-1,4-thiomorpholin-4-yl)ethoxy]phenyl}methyl)-1-phenylpentan-2-yl]carbamate] showed an IC50 of 0.07 nM.

As for `CC(C)(C)OC(=O)N[C@@H](Cc1ccc(OCCN2CCOCC2)cc1)[C@@H](O)C[C@@H](Cc1ccccc1)C(=O)N[C@H]1c2ccccc2C[C@H]1O` [tert-butyl N-[(2S,3S,5R)-5-benzyl-3-hydroxy-5-{[(1S,2R)-2-hydroxy-2,3-dihydro-1H-inden-1-yl]carbamoyl}-1-{4-[2-(morpholin-4-yl)ethoxy]phenyl}pentan-2-yl]carbamate], half-maximal inhibition (IC50) was put at 0.55 nM.

In turn, `CC(C)(C)OC(=O)N[C@@H](Cc1ccccc1)[C@@H](O)C[C@@H](Cc1ccc(OCC(=O)N2CCOCC2)cc1)C(=O)N[C@H]1c2ccccc2C[C@H]1O` [tert-butyl N-[(2S,3S,5R)-3-hydroxy-5-{[(1S,2R)-2-hydroxy-2,3-dihydro-1H-inden-1-yl]carbamoyl}-5-({4-[2-(morpholin-4-yl)-2-oxoethoxy]phenyl}methyl)-1-phenylpentan-2-yl]carbamate] registered an IC50 of 0.2 nM.

On to `CC(C)(C)OC(=O)N[C@@H](Cc1ccc(O)cc1)[C@@H](O)C[C@@H](Cc1ccc(O)cc1)C(=O)N[C@H]1c2ccccc2C[C@H]1O` [N-(2(R)-Hydroxy-1(S)-indanyl)-5(S)-[(tert-butyloxycarbonyl)amino]-4(S)-hydroxy-6-(4-hydroxyphenyl)-2-(R)-[(4-hydroxyphenyl)methyl]hexanamide], for which the IC50 was 0.15 nM.

In the case of `CC(C)(C)OC(=O)N[C@@H](Cc1ccccc1)[C@@H](O)C[C@@H](Cc1ccc(OCC(=O)O)cc1)C(=O)N[C@H]1c2ccccc2C[C@H]1O` [2-{4-[(2R)-2-[(2S,3S)-3-{[(tert-butoxy)carbonyl]amino}-2-hydroxy-4-phenylbutyl]-2-{[(1S,2R)-2-hydroxy-2,3-dihydro-1H-inden-1-yl]carbamoyl}ethyl]phenoxy}acetic acid], the IC50 was 0.04 nM.

`CC(C)(C)OC(=O)N[C@@H](Cc1ccccc1)[C@@H](O)C[C@@H](Cc1ccc(OCCN2CCS(=O)(=O)CC2)cc1)C(=O)N[C@H]1c2ccccc2C[C@H]1O` [N-(2(R)-Hydroxy-1(S)-indanyl)-5(S)-[(tert-butyloxycarbonyl)amino]-4(S)-hydroxy-6-phenyl-2(R)-[[4-[2-(1,1-dioxythiamorpholin-4-yl)ethoxy]phenyl]methyl]hexanamide] had an IC50 of 0.08 nM.

`CC(C)(C)OC(=O)N[C@@H](Cc1ccccc1)[C@@H](O)C[C@@H](Cc1ccc(OCCO)cc1)C(=O)N[C@H]1c2ccccc2C[C@H]1O` [tert-butyl N-[(2S,3S,5R)-3-hydroxy-5-{[(1S,2R)-2-hydroxy-2,3-dihydro-1H-inden-1-yl]carbamoyl}-5-{[4-(2-hydroxyethoxy)phenyl]methyl}-1-phenylpentan-2-yl]carbamate] showed an IC50 of 0.09 nM.

Regarding `CC(C)(C)OC(=O)N[C@@H](Cc1ccc(O)cc1)[C@@H](O)C[C@@H](Cc1ccccc1)C(=O)N[C@H]1c2ccccc2C[C@H]1O` [N-(2(R)-Hydroxy-1(S)-indanyl)-5(S)-[(tert-butyloxycarbonyl)amino]-4(S)-hydroxy-6-(4-hydroxyphenyl)-2-(R)-(phenylmethyl)hexanamide], the IC50 stood at 0.35 nM.

The molecule `CC(C)(C)OC(=O)N[C@@H](Cc1ccccc1)[C@@H](O)C[C@@H](Cc1ccc(OCc2ccccc2)cc1)C(=O)N[C@H]1c2ccccc2C[C@H]1O` [N-(2(R)-Hydroxy-1(S)-indany1)-5(S)-[(tert-butyloxycarbonyl)amino]-4(S)-hydroxy-6-phenyl-2(R)-[[4-(benzyloxy)phenyl]methyl]hexanamide] had an IC50 of 0.18 nM.

Molecule `COCCN(CCOC)CCOc1ccc(C[C@H](C[C@H](O)[C@H](Cc2ccccc2)NC(=O)OC(C)(C)C)C(=O)N[C@H]2c3ccccc3C[C@H]2O)cc1` [N-(2(R)-Hydroxy-1(S)-indanyl)-5(S)-[(tert-butyloxycarbonyl)amino]-4(S)-hydroxy-6-phenyl-2(R)-[[4-[2-[N,N-bis(2-methoxyethyl)amino]ethoxy]phenyl]methyl]hexanamide] had an IC50 of 0.9 nM.

In turn, `CC(C)(C)OC(=O)N[C@@H](Cc1ccccc1)[C@@H](O)C[C@@H](Cc1ccc(OCCN2CCCCC2)cc1)C(=O)N[C@H]1c2ccccc2C[C@H]1O` [tert-butyl N-[(2S,3S,5R)-3-hydroxy-5-{[(1S,2R)-2-hydroxy-2,3-dihydro-1H-inden-1-yl]carbamoyl}-1-phenyl-5-({4-[2-(piperidin-1-yl)ethoxy]phenyl}methyl)pentan-2-yl]carbamate] gave a half-inhibitory concentration (IC50) of 1.6 nM.
